From patent EP4603105A1, “PHARMACEUTICAL COMPOSITION CONTAINING CYCLIC COMPOUND HAVING SELECTIVE KRAS INHIBITORY EFFECT AGAINST HRAS AND NRAS” (CHUGAI SEIYAKU KABUSHIKI KAISHA, priority 2022, dated 2024)
Where a SMILES comes first, the peptide text is derived from it. Bridges are numbered along the chain shown (N, C = ends). [ ]: non-standard residue; d: D form. The star is where a group is joined. hPhe(3-Cl-4-CF3) = N[C@@H](CCc1ccc(C(F)(F)F)c(Cl)c1)C(=O)O; NPrPhe(4-CF3) = CCCN[C@@H](Cc1ccc(C(F)(F)F)cc1)C(=O)O; NMeGly(cPent) = CN[C@H](C(=O)O)C1CCCC1; Pro(4,4-F2) = O=C(O)[C@@H]1CC(F)(F)CN1; Hyp = O=C(O)[C@@H]1C[C@@H](O)CN1; NMeD = CN[C@@H](CC(=O)O)C(=O)O; NMeL = CN[C@@H](CC(C)C)C(=O)O; Morpholide = C1CN(*)CCO1; Ac5c = NC1(C(=O)O)CCCC1; Ac4c = NC1(C(=O)O)CCC1; NEtG = CCNCC(=O)O; Sar = CNCC(=O)O

How the values were obtained:
[1] = tested on: human lung cancer strain NCI-H441; format: cell-based
Method in brief: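 Readout: […] after the ATP-based reagent. Compound: serial dilutions in dimethyl sulfoxide.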

HRAS wild-type protein = HRAS wild-type protein (Homo sapiens, UniProt P01112); test: Binding to HRAS by surface plasmon resonance (SPR), KD and KD ratio to KRAS
Sequence of HRAS wild-type protein (P01112 whole entry): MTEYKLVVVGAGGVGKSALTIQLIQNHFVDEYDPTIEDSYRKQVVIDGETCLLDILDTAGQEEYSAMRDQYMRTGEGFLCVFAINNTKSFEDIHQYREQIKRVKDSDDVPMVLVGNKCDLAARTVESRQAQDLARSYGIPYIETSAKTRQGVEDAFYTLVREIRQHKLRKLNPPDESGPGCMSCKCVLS
Method in brief: (§1)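 GDP-bound biotin-Avi RAS captured at ~100–300 RU, 30°C, pH 7.4 HBS containing 10 µM GDP, 10 mM MgCl2, 1 mM DTT, 0.01% Tween 20 and 4% DMSO. KD by 1:1 fitting.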

[2] = target: GDP-bound NRAS wild-type protein (Homo sapiens, UniProt P01111); test: Binding to NRAS by surface plasmon resonance (SPR), KD and KD ratio to KRAS
Sequence of GDP-bound NRAS wild-type protein (P01111 whole entry): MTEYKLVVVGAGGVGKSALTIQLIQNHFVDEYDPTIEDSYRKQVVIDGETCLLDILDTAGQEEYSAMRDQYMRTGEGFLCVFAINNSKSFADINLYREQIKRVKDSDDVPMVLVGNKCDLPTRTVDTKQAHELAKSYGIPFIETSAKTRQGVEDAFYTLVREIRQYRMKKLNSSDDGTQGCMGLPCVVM
Method in brief: as §1

[3] = ratio of the KD value with respect to HRAS wild-type protein to the KD value with respect to KRAS
[4] = ratio of the KD value with respect to GDP-bound NRAS wild-type protein to the KD value with respect to KRAS
[5] = ratio of KD for HRAS wild-type protein to KD for KRAS
[6] = ratio of KD for GDP-bound NRAS wild-type protein to KD for KRAS
[7] = ratio of KD value for HRAS wild-type protein to KD value for KRAS (SPR)
[8] = ratio of KD value for GDP-bound NRAS wild-type protein to KD value for KRAS (SPR)

| SMILES | IC50 [1] | HRAS /KRAS (HRAS wild-type protein; [5]) | NRAS /KRAS [2, 6] | further results |
| --- | --- | --- | --- | --- |
| CCO[C@@H]1C[C@H]2C(=O)NC3(CCC3)C(=O)N(C)[C@@H](C3CCCC3)C(=O)N(C)[C@H](C(=O)N(CC)CC)CC(=O)N(C)[C@@H](C)C(=O)N[C@@H]([C@@H](C)CC)C(=O)N(C)CC(=O)N(C)[C@H]3C/C=C\CCN(C3=O)[C@@H](Cc3ccc(C(F)(F)F)cc3)C(=O)N(C)CC(=O)N[C@@H](CCc3cc(F)c(C(F)(F)F)c(F)c3)C(=O)N2C1 [PP1308] | 10.9 nM | – | – | HRAS /KRAS (HRAS wild-type protein; ratio of KD with respect to HRAS wild-type protein to KD with respect to KRAS): A (a compound having 10 or more and less than 20 is denoted as A); NRAS /KRAS ([2]; ratio of KD with respect to GDP-bound NRAS wild-type protein to KD with respect to KRAS): A (a compound having 10 or more and less than 20 is denoted as A) |
| CCO[C@@H]1C[C@H]2C(=O)NC3(CC(C)(C)C3)C(=O)N(C)[C@@H](C(CC)CC)C(=O)N(C)[C@H](C(=O)N(C)C)CC(=O)N(C)[C@@H](COC)C(=O)N[C@@H]([C@@H](C)CC)C(=O)N(C)CC(=O)N(C)[C@H]3C/C=C\CCN(C3=O)[C@@H](Cc3ccc(C(F)(F)F)cc3)C(=O)N(C)CC(=O)N[C@@H](CCc3cc(F)c(C(F)(F)F)c(F)c3)C(=O)N2C1 [PP2121] | 11.4 nM | – | – | HRAS /KRAS (HRAS wild-type protein; [3]): A (a compound having 10 or more and less than 20 is denoted as A); NRAS /KRAS [2, 4]: AA (a compound having 20 or more is denoted as AA) |
| CCCN1C(=O)CN(C)C(=O)CN(C)C(=O)[C@H]([C@@H](C)CC)NC(=O)[C@H](CC(C)C)N(C)C(=O)C[C@@H](C(=O)N2CCOCC2)N(C)C(=O)[C@H](C2CCCC2)N(C)C(=O)C2(CCC2)NC(=O)[C@@H]2C[C@@H](OCC)CN2C(=O)[C@H](CCc2ccc(C(F)(F)F)c(Cl)c2)NC(=O)CN(C)C(=O)[C@@H]1Cc1ccc(C(F)(F)F)cc1 [PP0392] ([NMeL]I[Sar][Sar][NPrPhe(4-CF3)][Sar][hPhe(3-Cl-4-CF3)][Hyp](Et)[Ac4c][NMeGly(cPent)][NMeD]-Morpholide; lactam N-11) | 0.9 nM | – | – | HRAS /KRAS (HRAS wild-type protein; [3]): C (A compound having a KD ratio of 0.1 or more and less than 3 is denoted as C); NRAS /KRAS [2, 4]: B (a compound having 3 or more and less than 10 is denoted as B) |
| CCCN1C(=O)CN(C)C(=O)CNC(=O)[C@H]([C@@H](C)CC)NC(=O)[C@H](CC(C)C)N(C)C(=O)C[C@@H](C(=O)N(C)C)NC(=O)[C@H](C2CCCC2)N(C)C(=O)C2(CCCC2)NC(=O)[C@@H]2CC(F)(F)CN2C(=O)[C@H](CCc2ccc(C(F)(F)F)c(Cl)c2)NC(=O)CN(C)C(=O)[C@@H]1Cc1ccc(C(F)(F)F)cc1 [PP0363] ([NMeL]IG[Sar][NPrPhe(4-CF3)][Sar][hPhe(3-Cl-4-CF3)][Pro(4,4-F2)][Ac5c][NMeGly(cPent)]D-NMe2; lactam N-11) | 91.4 nM | C (A compound having a KD ratio of 0.1 or more and less than 3 is denoted as C) | B (a compound having 3 or more and less than 10 is denoted as B) | – |
| CCO[C@@H]1C[C@H]2C(=O)NC3(CCC3)C(=O)N(C)[C@@H](C3CCCC3)C(=O)N(C)[C@H](C(=O)N(C)CC)CC(=O)N(C)[C@@H](CC(C)C)C(=O)N[C@@H]([C@@H](C)CC)C(=O)N(C)CC(=O)N(C)[C@H]3C/C=C\CCN(C3=O)[C@@H](Cc3ccc(C(F)(F)F)cc3)C(=O)N(C)CC(=O)N[C@@H](CCc3ccc(C(F)(F)F)c(OC)c3)C(=O)N2C1 [PP2846] | 5.1 nM | A (a compound having 10 or more and less than 20 is denoted as A) | AA (a compound having 20 or more is denoted as AA) | – |
| CC[C@H](C)[C@@H]1NC(=O)[C@H](CC(C)C)N(C)C(=O)C[C@@H](C(=O)N2CCOCC2)N(C)C(=O)[C@H](C2CCCC2)N(C)C(=O)C2(CCCC2)NC(=O)[C@@H]2CC(=O)CN2C(=O)[C@H](CCc2cc(F)c(C(F)(F)F)c(F)c2)NC(=O)CN(C)C(=O)[C@H](Cc2ccc(C(F)(F)F)cc2)N2CCCCC[C@@H](C2=O)N(C)C(=O)CN(C)C1=O [PP0493] | 628 nM | – | – | HRAS /KRAS (HRAS wild-type protein; [3]): B (a compound having 3 or more and less than 10 is denoted as B); NRAS /KRAS [2, 4]: B (a compound having 3 or more and less than 10 is denoted as B) |
| CCC(CC)[C@H]1C(=O)N(C)[C@H](C(=O)N(C)C)CC(=O)N(C)[C@@H](COC)C(=O)N[C@@H]([C@@H](C)CC)C(=O)N(C)CC(=O)N(C)[C@H]2C/C=C\CCN(C2=O)[C@@H](Cc2ccc(C(F)(F)F)cc2)C(=O)N(C)CC(=O)N[C@@H](CCc2cc(F)c(C(F)(F)F)c(F)c2)C(=O)N2CCOC[C@H]2C(=O)NC2(CC(C)(C)C2)C(=O)N1C [PP2917] | 130 nM | A (a compound having 10 or more and less than 20 is denoted as A) | AA (a compound having 20 or more is denoted as AA) | – |
| CCO[C@@H]1C[C@H]2C(=O)NC3(CC(C)(C)C3)C(=O)N(C)[C@@H](C3CCCC3)C(=O)N(C)[C@H](C(=O)N(C)C)CC(=O)N(C)[C@@H](CC(C)C)C(=O)N[C@@H]([C@@H](C)CC)C(=O)N(C)CC(=O)N(C)[C@H]3C/C=C\CCN(C3=O)[C@@H](Cc3ccc(C)cc3F)C(=O)N(C)CC(=O)N[C@@H](CCc3ccc(C(F)(F)F)c(OC)c3)C(=O)N2C1 [PP2688] | 6.9 nM | B (a compound having 3 or more and less than 10 is denoted as B) | A (a compound having 10 or more and less than 20 is denoted as A) | – |
| CCC[C@H]1C(=O)N[C@@H]([C@@H](C)CC)C(=O)N(C2CC2)CC(=O)N(C)[C@H]2C/C=C\CCN(C2=O)[C@@H](Cc2ccc(C(F)(F)F)cc2)C(=O)N(C)CC(=O)N[C@@H](CCc2ccc(Cl)c(Cl)c2)C(=O)N2C[C@H](OCC)C[C@H]2C(=O)NC2(CC(C)(C)C2)C(=O)N(C)[C@@H](CC2CCC2)C(=O)N(C)[C@H](C(=O)N(C)C)CC(=O)N1C [PP2819] | 102 nM | A (a compound having 10 or more and less than 20 is denoted as A) | A (a compound having 10 or more and less than 20 is denoted as A) | – |
| CC[C@H](C)[C@@H]1NC(=O)[C@H](CC)N(C)C(=O)C[C@@H](C(=O)N(C)C)N(C)C(=O)[C@H](C2CCCC2)N(C)C(=O)C2(CCCC2)N(C)C(=O)[C@@H]2CCCN2C(=O)[C@H](CCc2cc(F)c(C(F)(F)F)c(F)c2)NC(=O)CN(C)C(=O)[C@H](Cc2ccc(C(F)(F)F)cc2)N2CC/C=C\C[C@@H](C2=O)N(C)C(=O)CN(C)C1=O [PP1805] | 7 nM | – | – | HRAS /KRAS (HRAS wild-type protein; [7]): A (a compound having 10 or more and less than 20 is denoted as A); NRAS /KRAS [2, 8]: A (a compound having 10 or more and less than 20 is denoted as A) |
| CCO[C@@H]1C[C@H]2C(=O)NC3(CCC3)C(=O)N(C)[C@@H](CC(C)(C)C)C(=O)N(C)[C@H](C(=O)N3CCCC3)CC(=O)N(C)[C@@H](CC)C(=O)N[C@@H]([C@@H](C)CC)C(=O)N(C)CC(=O)N(C)[C@H]3C/C=C\CCN(C3=O)[C@@H](CC3CCCCC3)C(=O)N(C)CC(=O)N[C@@H](CCc3cc(F)c(C(F)(F)F)c(F)c3)C(=O)N2C1 [PP2772] | 28.1 nM | B (a compound having 3 or more and less than 10 is denoted as B) | B (a compound having 3 or more and less than 10 is denoted as B) | – |
| CCC[C@H]1C(=O)N[C@@H]([C@@H](C)CC)C(=O)N(C)CC(=O)N(C)[C@H]2C/C=C\CCN(C2=O)[C@@H](Cc2ccc(C)cc2)C(=O)N(C)CC(=O)N[C@@H](CCc2ccc(Cl)c(C(F)(F)F)c2)C(=O)N2C[C@H](OCC)C[C@H]2C(=O)NC2(CC(C)(C)C2)C(=O)N(C)[C@@H](C(CC)CC)C(=O)N(C)[C@H](C(=O)N(C)C)CC(=O)N1C [PP2787] | 22.1 nM | A (a compound having 10 or more and less than 20 is denoted as A) | AA (a compound having 20 or more is denoted as AA) | – |
| CCCN1C(=O)CN(C)C(=O)CN(CC)C(=O)[C@H]([C@@H](C)CC)NC(=O)[C@H](CC(C)C)N(C)C(=O)C[C@@H](C(=O)N2CCOCC2)NC(=O)[C@H](C2CCCC2)N(C)C(=O)C2(CCCC2)NC(=O)[C@@H]2CCCN2C(=O)[C@H](CCc2ccc(C(F)(F)F)c(Cl)c2)NC(=O)CN(C)C(=O)[C@@H]1Cc1ccc(C(F)(F)F)cc1 [PP0331] ([NMeL]I[NEtG][Sar][NPrPhe(4-CF3)][Sar][hPhe(3-Cl-4-CF3)]P[Ac5c][NMeGly(cPent)]D-Morpholide; lactam N-11) | 84.7 nM | B (a compound having 3 or more and less than 10 is denoted as B) | B (a compound having 3 or more and less than 10 is denoted as B) | – |
| CCO[C@@H]1C[C@H]2C(=O)NC3(CC(C)(C)C3)C(=O)N(C)[C@@H](C3CCCC3)C(=O)N(C)[C@H](C(=O)N(C)CC)CC(=O)N(C)[C@@H](CC(F)F)C(=O)N[C@@H]([C@@H](C)CC)C(=O)N(C)CC(=O)N(C)[C@H]3C/C=C\CCN(C3=O)[C@@H](Cc3ccc(C(F)(F)F)cc3)C(=O)N(C)CC(=O)N[C@@H](CCc3cc(F)c(C(F)(F)F)c(F)c3)C(=O)N2C1 [PP1643] | 1.6 nM | – | – | HRAS /KRAS (HRAS wild-type protein; [7]): A (a compound having 10 or more and less than 20 is denoted as A); NRAS /KRAS [2, 8]: A (a compound having 10 or more and less than 20 is denoted as A) |
| CCO[C@@H]1C[C@H]2C(=O)NC3(CC(C)(C)C3)C(=O)N(C)[C@@H](C3CCCC3)C(=O)N(C)[C@H](C(=O)N(C)CC)CC(=O)N(C)[C@@H](COC)C(=O)N[C@@H]([C@@H](C)CC)C(=O)N(C)CC(=O)N(C)[C@H]3C/C=C\CCN(C3=O)[C@@H](Cc3ccc(C(F)(F)F)cc3)C(=O)N(C)CC(=O)N[C@@H](CCc3cc(F)c(C(F)(F)F)c(F)c3)C(=O)N2C1 [PP1671] | 3 nM | – | – | HRAS /KRAS (HRAS wild-type protein; [7]): A (a compound having 10 or more and less than 20 is denoted as A); NRAS /KRAS [2, 8]: A (a compound having 10 or more and less than 20 is denoted as A) |
